{"source": "patent US20190091174A1", "about": "“METHOD OF REDUCING SEIZURE TYPE E[…] A DRAVET PATIENT” (ZOGENIX INTERNATIONAL LIMITED, priority 2017, published 2019)", "key": {"[1]": {"system": "patients with Dravet syndrome", "assay": "Study 1 (ZX008-1501/1502): Phase 3, double-blind, placebo-controlled, liquid fenfluramine formulation added to current antiepileptic drugs", "assay_type": "in vivo, human", "conditions": "end of the T+M Period", "procedure": "The first 119 subjects to be randomized in both identical studies combined were analyzed and reported as Study 1 (FIG. 1), covered by a Statistical Analysis Plan (SAP).\nPrimary and key secondary endpoints in the Study 1 SAP were pre-determined. All patients were treated twice per day over a period of 14 weeks using an oral syringe to administer the formulation. The treatment period included a two-week titration period and a 12-week maintenance period.\nThe initial results of Study 1 are outlined below. The randomized, double blind, placebo controlled, Phase 3 study enrolled 119 patients across sites in the United States, Canada, Europe and Australia. The median age of patients was 8 years, the mean age of patients was 9 years (range, 2-18 years) (FIG. 2).\nPatients were titrated to their target dose over two weeks, and then remained at that fixed dose for 12 weeks. The mean baseline convulsive seizure frequency across the study groups was approximately 40 seizures per month. 110 (92%) patients completed the study (85% 0.8 mg/kg/day; 100% 0.2 mg/kg/day; 93% placebo). […]\nThe mean number of convulsive seizure free days, defined as a day for which diary data are available and no convulsive seizures have been reported, was determined for each treatment group during the Baseline and T+M Periods. […]"}, "[2]": {"system": "patients with Dravet syndrome", "conditions": "long-term fenfluramine treatment; cited from earlier work"}}, "data": [{"smiles": "CCNC(C)Cc1cccc(C(F)(F)F)c1", "note": "(racemic) [Fenfluramine, 3-trifluoromethyl-N-ethylamphetamine]", "values": [{"measurement": "reduction from Baseline in non-convulsive seizures (all types), % [SD]", "setting": "[1]; 0.2 mg/kg/day", "value": "9.7% (140.46)"}, {"measurement": "reduction from Baseline in non-convulsive seizures (all types), % [SD]", "setting": "[1]; 0.8 mg/kg/day", "value": "59.1% (40.14)"}, {"measurement": "heart valve defects monitored by echocardiography", "setting": "[2]", "value": "No clinically relevant defects"}, {"measurement": "incidence of all types of seizures", "setting": "[2]", "value": "effectively reduced the incidence of all types of seizures"}, {"measurement": "seizure-free condition, share of test subjects", "setting": "[2]", "value": 66.6, "unit": "%"}]}]}
